In US12721863B2, “Treatment for down syndrome-related accelerated aging” (The Texas A&M University System, priority 2021, dated 2026):

Assays:
Nrf2 = Nrf2 Western blot in bEnd.3 cells; type: cell-based, mouse; details: lipoic acid 1 mM alone; FIG. 9
Method: Culture of bEnd.3 Cells for Nrf2 Study—Mouse brain endothelial (b.End3) cells are grown and maintained in DMEM supplemented with 10% fetal bovine serum and 1% penicillin streptomycin. Once cells reach 90% confluence, cells are split in a 1-to-5 ratio.
Treatment of bEnd.3 Cells for Nrf2 Study—b.End3 cells are seeded on 10-cm petri dishes. On day 4, half of the old media is discarded and replaced with fresh media.
Nrf2 Western blotting—Cell extraction is performed using Cell Lysis Buffer and the provided protocol (ThermoFisher #FNN0011). Proteins are quantified using Bradford assay (Thermofisher #1863028). Same amounts of proteins of each lysate (20 μg) are loaded on an SDS-PAGE gel under reducing conditions (unless stated otherwise). Membrane transfer is done overnight (about 18 hours) in cold room and blocked with 5% dry milk/TBST the next day. Subsequently, the membrane is incubated with primary antibodies overnight (about 18 hours) and with secondary antibodies for an hour in blocking solution. Signals are developed with ECL (ThermoFisher #A43840) and captured with ChemiDoc™ Imaging System.

AHI lymphocytes = experiment: AP39 challenge of AHI lymphocytes; type: cell-based, human; details: AHI cells; 5 μM AP39; p<0.05; FIG. 10
From the text: (§1) Age-matched and sex-matched DS-donor and apparently healthy individual (AHI) lymphocytes (Coriell Institute, Camden, NJ) are used as a human model of DS.

DS lymphocytes = experiment: AP39 challenge of DS lymphocytes; type: cell-based, human; details: DS cells; 5 μM AP39; p<0.05; FIG. 10
From the text: as §1

| SMILES | Nrf2 signal (Western blot) (Nrf2) | cell proliferation (AHI lymphocytes) | cell proliferation (DS lymphocytes) | viability versus untreated control (DS lymphocytes) |
| --- | --- | --- | --- | --- |
| O=C(O)CCCC[C@@H]1CCSS1 (racemic) [lipoic acid] | some small increases in signal |  |  |  |
| O=C(CCCCCCCCC[P+](c1ccccc1)(c1ccccc1)c1ccccc1)Oc1ccc(-c2cc(=S)ss2)cc1.[Br-] [AP39] |  | reduced | reduced | significant reduction in viability |
